From article PMC10895678 (Journal of Medicinal Chemistry, 2024)
≈ marks a conversion by molar mass, not a printed value. Where “and” joins values, the source holds several entries; their conditions need not be identical. Identical values can stand only once. Like-named read-outs stand apart in the source and are kept apart here.

How the values were obtained:
[1] = tested on: BCG pTIC6-fbpC; format: cell-based, Mycobacterium bovis BCG
[2] = Mouse PK, combined (cassette) dosing of BGAz-001–005; format: in vivo, KM mice; parameters: AUMC(0-t) / VRT(0-t) / λz: unit not given here; conditions: for AUC(0-t): read-out: AUC(0-t); for MRT last: read-out: MRT(0-t); for MRT inf: read-out: MRT(0-∞); for Vd/F: read-out: Vz/F
From the text: Methods for combined single dosing (BGAz001–005) and dosing of single compounds multiple times (BGAz004 and BGAz005) are described in detail in the Supporting Information (PK Data).
Report on PK Results of Combined Dosing with BGAz-001–005
1 Materials and instrument combined dosing
An MS2 Turnover type oscillator was purchased from IKA Work’s Guangzhou (China), and a 5415R ChromatographicanalyseswereconductedusinganAgilent1290InfinityIIhighperformanceliquidchromatography andAgilentTechnologies6470TripleQuadLC/MS.Propranolol(≥90%inpurity,internalstandard,IS)waspurchased fromtheSigmaChemicalCo.(China).Formicacid(HPLCgrade)andmethanol(HPLCgrade)werepurchasedfrom DIKMACo.(China).Allchemicalsandsolventswereanalyticalgrade.WaterwaspurifiedusingaMillipore(AK,USA) laboratoryultra-purewatersystem(0.2μmfilter).
KMmice,weighing25–35g(BeijingVitalRiverLaboratoryAnimalTechnologyCo.,Ltd.,China)wereutilisedforthe studies.The protocols were approved by the Animal Care and Use Committee, GIBH. Animals were maintained on standard animal chow and waterad libitum, in a climate-controlled room (23±1 °C 30–70% relative humidity, a minimumof tenexchangesof roomairperhouranda12hlight/darkcycle)foroneweekpriortoexperiments.
3 Pharmacokinetic studies
Compounds BGAz-001 ，BGAz-002 ，BGAz-003 ，BGAz-004 and BGAz-005 were dissolved mixed in a solution containing DMSO (2%),ethanol (4%), Cremophor EL (4%) and ddH2O (90%); Pharmacokinetic propertiesof KM (male) were determined following IV, PO and IP administration. Animals were randomly distributed into three experimentalgroups(n=4).ThePOgroupwasgivenmixedsolutionwith5mg/kgbygastricgavage.TheIVgroup was dosed with mixed solution 1mg/kg byinjection into the tail vein. The IP group was dosed with mixed solution 1mg/kg by intraperitoneal injection. After single administration, whole blood samples (100 μL) were obtained from the orbital venousplexus atthe followingtime pointsafter dosing:5, 15,30 minand 1,3, 5,8, 24hour (PO and IP groups) and at the following time points after dosing 2, 10, 30min and 1, 3, 5, 8,24 hour (IV group). Wholeblood samples were collected in heparinised tubes. The plasma fraction was immediately separated by centrifugation. The micewerehumanelyeuthanasiabycarbondioxide24hoursafterexperimentwithoutpain.
4 Plasma sample and brain sample analysis
4.1 Standard curve sample preparation
ThecompoundsweredissolvedinDMSO(2mg/mL)anddilutedwithtoseriesconcentration(methanol:H 2O,1:1,10 μL) and blank plasma (50 μL) were added to 1.5 mL tubes and vortexed for 3 min, then acetonitrile-containing internalstandard(150μL)wasaddedandvortexedforafurther5min,andsubsequentlyspuninacentrifugeat13000 […]
4.2 Plasma and preparation
Plasmasampleswerepreparedusingaproteinprecipitationmethod.Solution(10μL,methanolH 2O,1:1)andplasma samples(50μL)wereaddedto1.5mLtubesandvortexfor3min,thenacetonitrile-containinginternalstandard(150 μL)wasaddedandvortexfor5min,andsubsequentlyspuninacentrifugeat13000× gfor40minat4°C.
Aftercentrifugation,supernatant(100μL)wastransferto96wellplatesandanalysedbyLC-MS/MSusinganAgilent 1290InfinityIIHPLCandanAgilentTechnologies6470TripleQuadLC/MS.

[3] = tested on: M. bovis BCG; assay: microbe, parasite or virus in culture; format: cell-based, Mycobacterium bovis BCG
[4] = tested on: BCG pTIC6-fbpB; format: cell-based, Mycobacterium bovis BCG
[5] = tested on: BCG pTIC6-fbpA; format: cell-based, Mycobacterium bovis BCG
[6] = IP 1 mg/kg, cassette, mean of animals
[7] = IV 1 mg/kg, cassette, mean of animals
[8] = PO 5 mg/kg, cassette, mean of animals
[9] = male, KM, mouse, plasma, IP 1 mg/kg, cassette
[10] = male, KM, mouse, plasma, IP 1 mg/kg, cassette, mean of animals
[11] = male, KM, mouse, plasma, IV 1 mg/kg, cassette
[12] = male, KM, mouse, plasma, IV 1 mg/kg, cassette, mean of animals
[13] = male, KM, mouse, plasma, PO 5 mg/kg, cassette
[14] = male, KM, mouse, plasma, PO 5 mg/kg, cassette, mean of animals

In the case of `CNCC1CC(c2ccc(OC(F)(F)F)cc2)N1Cc1ccccc1OC(F)(F)F` (stereo not drawn) [BGAz-005], the BCG pTIC6-fbpC MIC [1] is reported as 50 µM, the “increase in MIC upon overexpression of FbpC” value [1] is reported as “two-fold increase” and the “AUMC(0-t)” value [2, 6] is reported as 2746.024 **μg. The “AUMC(0-∞)” value [2, 6] was 5711.413 **μg, the CLz/F [2, 6] was 2.157 L/kg and the C_last [2, 6] was 5.459 µg. For the same compound, the “R_AUC(t/∞)” value [2, 6] was 83.575%, the “VRT(0-t)” value [2, 6] was 43.817 ^2 and the “VRT(0-∞)” value [2, 6] was 202.71 ^2. The λz [2, 6] was 0.079 1/, the “AUC(0-∞)” value ([2]; IP 1 mg/kg, cassette, summary table) was 464.151 µg·h and the “AUMC(0-t)” value [2, 7] was 2221.012 **μg. For the same compound, the “AUMC(0-∞)” value [2, 7] was 3469.367 **μg, the CLz/F [2, 7] was 2.386 L/kg and the C_last [2, 7] was 2.531 µg. The “R_AUC(t/∞)” value [2, 7] was 91.7%, the “VRT(0-t)” value [2, 7] was 45.323 ^2 and the “VRT(0-∞)” value [2, 7] was 139.16 ^2. The Vz/F [2, 7] was 28.599 L/kg, the λz [2, 7] was 0.098 1/ and the “AUC(0-∞)” value ([2]; IV 1 mg/kg, cassette, summary table) was 424.729 µg·h. The BA ([2]; PO 5 mg/kg vs IV 1 mg/kg, cassette) was 72.63%, the “AUMC(0-t)” value [2, 8] was 6391.819 **μg and the “AUMC(0-∞)” value [2, 8] was 80528.925 **μg. The CLz/F [2, 8] was 14.928 L/kg, the C_last [2, 8] was 18.45 µg and the “R_AUC(t/∞)” value [2, 8] was 55.825%. For the same compound, the “VRT(0-t)” value [2, 8] was 47.178 ^2, the “VRT(0-∞)” value [2, 8] was 2247.307 ^2 and the λz [2, 8] was 0.017 1/. The “AUC(0-∞)” value ([2]; PO 5 mg/kg, cassette, summary table) was 1542.381 µg·h, the AUC(0-inf) ([2]; male, KM, mouse, plasma, ip, 1 mg/kg, IP 1 mg/kg, cassette, mean of animals, read-out: AUC(0-∞)) was 464 ng·h/mL and the Cmax ([2]; male, KM, mouse, plasma, ip, 1 mg/kg, IP 1 mg/kg, cassette, mean of animals, read-out: Cmax) was 41.9 ng/mL. The Tmax ([2]; male, KM, mouse, plasma, ip, 1 mg/kg, IP 1 mg/kg, cassette, mean of animals, read-out: Tmax) was 0.646 h, the Cmax ([2]; male, KM, mouse, plasma, ip, 1 mg/kg, IP 1 mg/kg, cassette, summary table, read-out: Cmax) was 41.9 ng/mL and the half-life ([2]; male, KM, mouse, plasma, ip, 1 mg/kg, IP 1 mg/kg, cassette, summary table, read-out: T1/2 (converted)) was 9.34 h. It also gave a Tmax ([2]; male, KM, mouse, plasma, ip, 1 mg/kg, IP 1 mg/kg, cassette, summary table, read-out: Tmax) of 0.646 h, an AUC(0-inf) ([2]; male, KM, mouse, plasma, iv, 1 mg/kg, IV 1 mg/kg, cassette, mean of animals, read-out: AUC(0-∞)) of 425 ng·h/mL and a Cmax ([2]; male, KM, mouse, plasma, iv, 1 mg/kg, IV 1 mg/kg, cassette, mean of animals, read-out: Cmax) of 320 ng/mL. For the same compound, the Tmax ([2]; male, KM, mouse, plasma, iv, 1 mg/kg, IV 1 mg/kg, cassette, mean of animals, read-out: Tmax) was 0.033 h, the Cmax ([2]; male, KM, mouse, plasma, iv, 1 mg/kg, IV 1 mg/kg, cassette, summary table, read-out: Cmax) was 320 ng/mL and the half-life ([2]; male, KM, mouse, plasma, iv, 1 mg/kg, IV 1 mg/kg, cassette, summary table, read-out: T1/2 (converted)) was 8.05 h. It also gave a Tmax ([2]; male, KM, mouse, plasma, iv, 1 mg/kg, IV 1 mg/kg, cassette, summary table, read-out: Tmax) of 0.033 h, an AUC(0-inf) ([2]; male, KM, mouse, plasma, po, 5 mg/kg, 5 mg/kg PO, cassette dosing, read-out: AUC0-inf) of 1540 ng·h/mL and a Cmax ([2]; male, KM, mouse, plasma, po, 5 mg/kg, 5 mg/kg PO, cassette dosing, read-out: Cmax (Mouse, P.O.)) of 43.1 ng/mL. It also gave a half-life ([2]; male, KM, mouse, plasma, po, 5 mg/kg, 5 mg/kg PO, cassette dosing, read-out: T1/2 (Mouse, P.O.) (converted)) of 35.7 h, a Tmax ([2]; male, KM, mouse, plasma, po, 5 mg/kg, 5 mg/kg PO, cassette dosing, read-out: Tmax (Mouse, P.O.)) of 6 h and an AUC(0-inf) ([2]; male, KM, mouse, plasma, po, 5 mg/kg, PO 5 mg/kg, cassette, mean of animals, read-out: AUC(0-∞)) of 1540 ng·h/mL. For the same compound, the Cmax ([2]; male, KM, mouse, plasma, po, 5 mg/kg, PO 5 mg/kg, cassette, mean of animals, read-out: Cmax) was 43.1 ng/mL, the Tmax ([2]; male, KM, mouse, plasma, po, 5 mg/kg, PO 5 mg/kg, cassette, mean of animals, read-out: Tmax) was 6 h and the Cmax ([2]; male, KM, mouse, plasma, po, 5 mg/kg, PO 5 mg/kg, cassette, summary table, read-out: Cmax) was 43.1 ng/mL. For the same compound, the half-life ([2]; male, KM, mouse, plasma, po, 5 mg/kg, PO 5 mg/kg, cassette, summary table, read-out: T1/2 (converted)) was 35.7 h, the Tmax ([2]; male, KM, mouse, plasma, po, 5 mg/kg, PO 5 mg/kg, cassette, summary table, read-out: Tmax) was 6 h and the concentration at 0.083 h [2, 9] was 27 ng/mL and 60 nM. The concentration at 0.25 h [2, 9] was 70 nM and 29.8 ng/mL, the concentration at 0.5 h [2, 9] was 80 nM and 36.3 ng/mL and the concentration at 1 h [2, 9] was 90 nM and 39.8 ng/mL. The concentration at 3 h [2, 9] was 80 nM and 33.4 ng/mL, the concentration at 5 h [2, 9] was 50 nM and 21.3 ng/mL and the concentration at 8 h [2, 9] was 40 nM and 15.4 ng/mL. The concentration at 24 h [2, 9] was 10 nM and 5.44 ng/mL, the AUC(0-t) [2, 10] was 388 ng·h/mL and the MRT last [2, 10] was 7.13 h. For the same compound, the MRT inf [2, 10] was 12.3 h, the Vd/F [2, 10] was 28.9 L/kg and the concentration at 0.033 h ([2]; male, KM, mouse, plasma, IV 1 mg/kg, cassette, 0.033 h) was 320 ng/mL and 740 nM. For the same compound, the concentration at 0.167 h ([2]; male, KM, mouse, plasma, IV 1 mg/kg, cassette, 0.167 h) was 330 nM and 145 ng/mL, the concentration at 0.5 h [2, 11] was 170 nM and 75.2 ng/mL and the concentration at 1 h [2, 11] was 120 nM and 50.1 ng/mL. For the same compound, the concentration at 3 h [2, 11] was 60 nM and 25.4 ng/mL, the concentration at 5 h [2, 11] was 40 nM and 16.1 ng/mL and the concentration at 8 h [2, 11] was 20 nM and 10.3 ng/mL. The concentration at 24 h [2, 11] was 10 nM and 5.2 ng/mL, the C0 [2, 12] was 392 ng/mL and the AUC(0-t) [2, 12] was 392 ng·h/mL. For the same compound, the MRT last [2, 12] was 5.5 h, the MRT inf [2, 12] was 8.24 h and the concentration at 0.083 h [2, 13] was 7.08 ng/mL and 20 nM. The concentration at 0.25 h [2, 13] was 30 nM and 11.3 ng/mL, the concentration at 0.5 h [2, 13] was 50 nM and 20.4 ng/mL and the concentration at 1 h [2, 13] was 70 nM and 32.5 ng/mL. For the same compound, the concentration at 3 h [2, 13] was 90 nM and 39.1 ng/mL, the concentration at 5 h [2, 13] was 90 nM and 37.6 ng/mL and the concentration at 8 h [2, 13] was 90 nM and 40.2 ng/mL. For the same compound, the concentration at 24 h [2, 13] was 60 nM and 24.3 ng/mL, the AUC(0-t) [2, 14] was 621 ng·h/mL and the MRT last [2, 14] was 8.45 h. For the same compound, the MRT inf [2, 14] was 38.7 h, the Vd/F [2, 14] was 129 L/kg and the MIC99 ([3]; Mycobacterium tuberculosis variant bovis BCG, BCG, read-out: BCG MIC99) was 21 µM (≈ 9.12 µg/mL). For the same compound, the MIC50 ([3]; Mycobacterium tuberculosis variant bovis BCG, BCG, read-out: MIC50 BCG) was 20 µM (≈ 8.69 µg/mL), the MIC99 ([3]; Mycobacterium tuberculosis variant bovis BCG, BCG, read-out: MIC99 BCG) was 21 µM (≈ 9.12 µg/mL) and the “increase in activity against M. bovis BCG compared to BGAz-001” value ([3]; fold, from MIC99) was “approximately three-fold increase”. For the same compound, the BCG pTIC6-fbpB MIC [4] was 50 µM, the “increase in MIC upon overexpression of FbpB” value [4] was “two-fold increase” and the BCG pTIC6-fbpA MIC [5] was 25 µM.
